Results: ChEMBL document CHEMBL1129091, “Synthesis and biological evaluation of a bicyclo [7.4.1]enediyne” (Bioorg Med Chem Lett, 1996)
≈ marks a conversion by molar mass, not a printed value.

System: HCT-116
Experiment: In vitro cytotoxicity against human colon carcinoma cells (HCT116)
Assay type: functional, cell-based

CC1(C)C2=CC(=O)CC[C@@]1(O)C#C/C=C\C#C[C@H]2O
IC50: 18 µg/mL (≈ 70.2 µM)
